Measurements: US20260125352A1, “PROCESSES FOR CONVERTING FURFURALS” (Origin Materials Operating, Inc., priority 2023, published 2026)

Experiment: Solubility of amine and their hydrochlorides in solvents at room temperature
Format: physicochemical
Conditions: for Solubility of amines in acetone / Solubility of amines in methanol / Solubility of amines in methylfurfural (MF) / Solubility of amines in propylene carbonate / Solubility of amines in toluene / Solubility of amines in water: free amine, low values at saturation; for Solubility of amines in acetone / Solubility of amine hydrochloride salts in acetone: acetone μ = 20.7, high values not necessarily at saturation; for Solubility of amines in methanol / Solubility of amine hydrochloride salts in methanol: methanol μ = 32.7, high values not necessarily at saturation; for Solubility of amines in methylfurfural (MF) / Solubility of amine hydrochloride salts in methylfurfural (MF): methylfurfural (MF) μ = 41.9, high values not necessarily at saturation; for Solubility of amines in propylene carbonate / Solubility of amine hydrochloride salts in propylene carbonate: propylene carbonate μ = 64.9, high values not necessarily at saturation; for Solubility of amines in toluene / Solubility of amine hydrochloride salts in toluene: toluene μ = 2.4, high values not necessarily at saturation; for Solubility of amines in water / Solubility of amine hydrochloride salts in water: water μ = 78.4, high values not necessarily at saturation; for Solubility of amine hydrochloride salts in acetone / Solubility of amine hydrochloride salts in methanol / Solubility of amine hydrochloride salts in methylfurfural (MF) / Solubility of amine hydrochloride salts in propylene carbonate / Solubility of amine hydrochloride salts in toluene / Solubility of amine hydrochloride salts in water: hydrochloride salt of the amine precursor

Compound	Solubility of amines in acetone [wt. %]	Solubility of amines in methanol [wt. %]	Solubility of amines in methylfurfural (MF) [wt. %]	Solubility of amines in propylene carbonate [wt. %]	Solubility of amines in toluene [wt. %]	Solubility of amines in water [wt. %]	Solubility of amine hydrochloride salts in acetone [wt. %]	Solubility of amine hydrochloride salts in methanol [wt. %]	Solubility of amine hydrochloride salts in methylfurfural (MF) [wt. %]	Solubility of amine hydrochloride salts in propylene carbonate [wt. %]	Solubility of amine hydrochloride salts in toluene [wt. %]	Solubility of amine hydrochloride salts in water [wt. %]
CCCCCN(CCCCC)CCCCC [triamylamine]	49.87	9.27	2.49	0.17	47.61	0.00						
CC(C)CN(CC(C)C)CC(C)C [triisobutylamine, 2-methyl-N,N-bis(2-methylpropyl)propan-1-amine]							34.35	47.15	24.44	31.21	51.82	25.88
CCN(C(C)C)C(C)C [Hunig's base]	49.20	49.11	14.35	4.59	46.90	0.30	15.01	33.08	26.83	34.05	<4.91	33.39
CN(C)C [trimethylamine]						47.16	<0.09	34.66	<0.13	<1.16	<0.12	38.39
